Patent US9650399B2, “Salicylic acid derivatives, pharmaceutically acceptable salt thereof, composition thereof and method of use thereof” (The Governing Council of the University of Toronto, priority 2012, dated 2017)
Read-outs that look alike come from different tables or passages of the source.

Assays:
BTSC73M = experiment: alamarBlue cell viability, BTSC 73M; format: cell-based, human; conditions: Table 4 library screen, alamarBlue; for IC50: Homo sapiens, read-out: 73M IC50
Protocol: (§1) First, the library was screened for biological activity against a set of three representative GBM BTSCs derived from GBM patients, including the very aggressive GBM BTSC lines, BTSC73M, BTSC30M, BTSC68EF. Dissociated BTSC spheres were seeded at 1500 cells/96-well and treated with drug compound or vehicle (DMSO) one day after plating. Cell viability following drug treatment was assessed after 72 hrs using the ALAMARBLUE™ assay (Invitrogen) according to the manufacturer's instructions. All culture experiments were performed in triplicate with a minimum of three wells per condition.
(§2) BTSC spheres were dissociated to single cells with the enzyme Accumax (Innovative Technologies), seeded at 1500 cells/96-well and treated with drug or vehicle (DMSO) one day after plating. […] BTSC spheres were dissociated to single cells as above and plated in 96 well plates in triplicate at 3000 cells/96-well. […] Cell viability following drug treatment was assessed three days later using the ALAMARBLUE™ assay (Invitrogen) according to the manufacturer's instructions. All culture experiments were performed in triplicate with a minimum of three wells per condition.

[1] = tested on: patient-derived pancreatic cancer line (Panc10.05); experiment: MTS cell survival, pancreatic cancer line; format: cell-based; conditions: Homo sapiens, Panc1005, Panc10.05, 72 h, read-out: ED50 (IC50)
Protocol: Low passage patient-derived pancreatic cancer line (Panc10.05) was plated in 96-well plates (3×10^3 per well) and allowed to attach overnight. STAT3 inhibitors 31, 41, 42 and 38 were added at indicated concentrations. Cell survival was measured 72 h after drug addition with the MTS assay.

BTSC30M = experiment: alamarBlue cell viability, BTSC 30M; format: cell-based, human; conditions: for IC50: Homo sapiens
Protocol: as §1, §2

AKT1 = target: T1, AKT1 (Homo sapiens, UniProt P31749); experiment: HotSpot radiometric kinase assay, AKT1; format: biochemical; conditions: 5 uM compound, 10 μM ATP, duplicate (Data 1, Data 2)
T1 construct: purchased Reaction Biology Corporation
T1 sequence (P31749 whole entry): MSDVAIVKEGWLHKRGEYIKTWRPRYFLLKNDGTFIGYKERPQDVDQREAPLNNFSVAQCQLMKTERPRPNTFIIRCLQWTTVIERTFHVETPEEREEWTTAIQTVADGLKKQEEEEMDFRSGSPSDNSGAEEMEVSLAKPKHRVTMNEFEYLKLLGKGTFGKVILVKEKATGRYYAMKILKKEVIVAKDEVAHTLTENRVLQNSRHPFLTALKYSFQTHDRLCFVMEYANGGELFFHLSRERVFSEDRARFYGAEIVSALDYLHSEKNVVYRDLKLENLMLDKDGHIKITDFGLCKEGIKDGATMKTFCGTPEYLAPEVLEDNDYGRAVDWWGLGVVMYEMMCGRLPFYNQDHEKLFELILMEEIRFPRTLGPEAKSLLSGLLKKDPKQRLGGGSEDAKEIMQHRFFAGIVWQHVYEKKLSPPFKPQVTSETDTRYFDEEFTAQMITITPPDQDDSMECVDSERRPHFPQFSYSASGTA

ERK1 = target: T2, ERK1 (Homo sapiens, UniProt P27361); experiment: HotSpot radiometric kinase assay, ERK1; format: biochemical; conditions: 5 uM compound, 10 μM ATP, duplicate (Data 1, Data 2)
T2 construct: purchased Reaction Biology Corporation
T2 sequence (P27361 whole entry): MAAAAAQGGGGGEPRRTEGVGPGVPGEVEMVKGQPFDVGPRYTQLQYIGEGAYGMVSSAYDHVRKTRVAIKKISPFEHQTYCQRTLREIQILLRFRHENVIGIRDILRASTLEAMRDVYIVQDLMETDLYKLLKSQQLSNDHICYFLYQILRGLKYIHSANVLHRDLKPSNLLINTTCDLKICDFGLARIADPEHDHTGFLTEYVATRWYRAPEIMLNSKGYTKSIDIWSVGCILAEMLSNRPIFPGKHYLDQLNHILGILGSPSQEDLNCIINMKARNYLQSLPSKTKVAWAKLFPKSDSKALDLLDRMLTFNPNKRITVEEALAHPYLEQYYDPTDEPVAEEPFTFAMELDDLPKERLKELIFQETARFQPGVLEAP

c-Src = target: T3, c-Src (Homo sapiens, UniProt P12931); experiment: HotSpot radiometric kinase assay, c-Src; format: biochemical; conditions: 5 uM compound, 10 μM ATP, duplicate (Data 1, Data 2)
T3 construct: purchased Reaction Biology Corporation
T3 sequence (P12931 whole entry): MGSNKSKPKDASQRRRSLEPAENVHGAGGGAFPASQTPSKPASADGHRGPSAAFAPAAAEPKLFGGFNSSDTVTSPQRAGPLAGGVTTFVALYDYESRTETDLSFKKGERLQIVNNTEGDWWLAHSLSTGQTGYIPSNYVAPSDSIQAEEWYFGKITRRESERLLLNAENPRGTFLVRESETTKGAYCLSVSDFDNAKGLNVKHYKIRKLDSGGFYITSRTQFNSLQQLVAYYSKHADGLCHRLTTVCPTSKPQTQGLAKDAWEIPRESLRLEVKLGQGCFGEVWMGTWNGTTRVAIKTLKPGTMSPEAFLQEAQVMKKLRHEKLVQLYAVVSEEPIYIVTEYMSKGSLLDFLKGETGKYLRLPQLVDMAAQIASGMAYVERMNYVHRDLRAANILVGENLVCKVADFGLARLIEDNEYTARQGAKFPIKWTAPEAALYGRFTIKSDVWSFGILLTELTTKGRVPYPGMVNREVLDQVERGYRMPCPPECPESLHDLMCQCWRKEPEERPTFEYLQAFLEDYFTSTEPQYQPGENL
Protocol: (§3) Briefly, this assay employs a radiometric detection system to measure kinase phosphoryl transfer activity.
(§4) Test compound was evaluated at a single dose of 5 μM in duplicate mode. […] Reactions were carried out at 10 μM ATP.
(§5) Preliminary screen against AKT, c-Src, ERK1, JaK1 and JaK2 was performed at Reaction Biology Corporation (www.reactionbiology.com, Malvern, Pa.) using the “HotSpot” assay platform. Specific kinase/substrate pairs along with their required cofactors were prepared in reaction buffer; 20 mM Hepes pH 7.5, 10 mM MgCl2, 1 mM EGTA, 0.02% Brij35, 0.02 mg/ml BSA, 0.1 mM Na3VO4, 2 mM DTT, 1% DMSO. The screen was completed in duplicate at a single concentration of 5 μM. The reaction well with the subject compound was treated with a mixture of ATP (Sigma, St. Louis Mo.) and ^33P ATP (Perkin Elmer, Waltham Mass.) to a final concentration of 10 μM. […] Reaction wells were kept at room temperature for 120 minutes, followed by spotting each of the reactions onto P81 ion exchange filter paper (Whatman Inc., Piscataway, N.J.). […] Background was subtracted using control reactions and the kinase activity data was expressed as the percent remaining kinase activity in test samples compared to vehicle (dimethyl sulfoxide) reactions. All IC50 values (table 3) and curve fitting were produced using Prism (GraphPad Software) (FIG. 5).

JAK1 = target: T4, JAK1 (Homo sapiens, UniProt P23458); experiment: HotSpot radiometric kinase assay, JAK1; format: biochemical; conditions: 5 uM compound, 10 μM ATP, duplicate (Data 1, Data 2)
T4 construct: purchased Reaction Biology Corporation
T4 sequence (P23458 whole entry): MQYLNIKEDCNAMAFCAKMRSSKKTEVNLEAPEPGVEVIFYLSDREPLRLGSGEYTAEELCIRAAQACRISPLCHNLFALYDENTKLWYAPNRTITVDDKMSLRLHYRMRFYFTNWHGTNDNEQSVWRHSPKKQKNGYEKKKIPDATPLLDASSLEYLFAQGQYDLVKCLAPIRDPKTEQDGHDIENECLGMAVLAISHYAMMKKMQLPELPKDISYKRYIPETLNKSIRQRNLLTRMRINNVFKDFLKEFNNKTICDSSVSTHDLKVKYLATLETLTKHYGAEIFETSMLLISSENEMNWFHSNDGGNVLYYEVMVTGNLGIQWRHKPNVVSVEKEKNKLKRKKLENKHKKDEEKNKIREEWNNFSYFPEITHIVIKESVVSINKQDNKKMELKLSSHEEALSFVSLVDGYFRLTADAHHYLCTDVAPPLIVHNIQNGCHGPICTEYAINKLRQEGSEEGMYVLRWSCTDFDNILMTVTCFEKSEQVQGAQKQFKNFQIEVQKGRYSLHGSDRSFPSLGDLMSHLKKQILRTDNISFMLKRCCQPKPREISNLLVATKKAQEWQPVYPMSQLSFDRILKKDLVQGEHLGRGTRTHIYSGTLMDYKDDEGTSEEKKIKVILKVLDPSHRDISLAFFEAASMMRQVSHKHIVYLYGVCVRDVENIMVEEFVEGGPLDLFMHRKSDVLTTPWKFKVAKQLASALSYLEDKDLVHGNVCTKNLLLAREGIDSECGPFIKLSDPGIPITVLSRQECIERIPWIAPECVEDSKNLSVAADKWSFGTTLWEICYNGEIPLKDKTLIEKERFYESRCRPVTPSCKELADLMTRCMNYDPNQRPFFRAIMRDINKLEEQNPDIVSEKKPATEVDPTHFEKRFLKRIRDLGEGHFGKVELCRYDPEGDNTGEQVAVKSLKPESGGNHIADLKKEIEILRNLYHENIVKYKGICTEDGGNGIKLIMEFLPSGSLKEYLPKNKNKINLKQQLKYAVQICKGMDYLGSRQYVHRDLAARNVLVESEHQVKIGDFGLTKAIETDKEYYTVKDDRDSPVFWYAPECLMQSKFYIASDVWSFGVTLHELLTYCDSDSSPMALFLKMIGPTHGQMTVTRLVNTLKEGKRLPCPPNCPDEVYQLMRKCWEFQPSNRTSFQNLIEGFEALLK
Protocol: as §3, §4, §5

JAK2 = target: T5, JAK2 (Homo sapiens, UniProt O60674); experiment: HotSpot radiometric kinase assay, JAK2; format: biochemical; conditions: 5 uM compound, 10 μM ATP, duplicate (Data 1, Data 2)
T5 construct: purchased Reaction Biology Corporation
T5 sequence (O60674 whole entry): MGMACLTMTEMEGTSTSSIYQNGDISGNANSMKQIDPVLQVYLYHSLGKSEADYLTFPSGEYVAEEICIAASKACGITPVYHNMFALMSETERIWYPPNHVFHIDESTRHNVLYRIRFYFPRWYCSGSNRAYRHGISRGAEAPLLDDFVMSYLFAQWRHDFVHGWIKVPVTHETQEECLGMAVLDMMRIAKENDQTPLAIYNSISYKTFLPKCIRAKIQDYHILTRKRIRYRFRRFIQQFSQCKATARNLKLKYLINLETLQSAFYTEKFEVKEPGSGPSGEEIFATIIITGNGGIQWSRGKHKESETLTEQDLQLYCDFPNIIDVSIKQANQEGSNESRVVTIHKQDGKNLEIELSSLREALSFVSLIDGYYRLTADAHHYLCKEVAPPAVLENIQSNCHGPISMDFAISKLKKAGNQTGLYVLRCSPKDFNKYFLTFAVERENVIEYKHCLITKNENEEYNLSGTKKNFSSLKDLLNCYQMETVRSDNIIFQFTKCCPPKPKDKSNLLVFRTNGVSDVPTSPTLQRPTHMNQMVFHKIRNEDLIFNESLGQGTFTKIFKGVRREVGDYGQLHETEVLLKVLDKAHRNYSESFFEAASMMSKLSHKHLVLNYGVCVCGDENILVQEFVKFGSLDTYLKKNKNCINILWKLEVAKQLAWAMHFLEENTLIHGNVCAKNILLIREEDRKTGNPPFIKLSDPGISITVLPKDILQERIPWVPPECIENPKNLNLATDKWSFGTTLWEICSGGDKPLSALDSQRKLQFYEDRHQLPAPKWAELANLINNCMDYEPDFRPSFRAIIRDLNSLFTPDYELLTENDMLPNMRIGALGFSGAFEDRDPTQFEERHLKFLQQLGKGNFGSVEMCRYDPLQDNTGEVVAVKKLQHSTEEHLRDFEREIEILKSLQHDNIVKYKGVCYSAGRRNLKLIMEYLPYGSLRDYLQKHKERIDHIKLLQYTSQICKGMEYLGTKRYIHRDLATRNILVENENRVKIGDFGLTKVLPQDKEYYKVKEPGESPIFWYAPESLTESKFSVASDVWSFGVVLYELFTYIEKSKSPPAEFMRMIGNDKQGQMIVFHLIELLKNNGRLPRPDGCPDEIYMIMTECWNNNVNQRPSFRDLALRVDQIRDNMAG
Protocol: as §3, §4, §5

[2] = tested on: Breast cancer cells (MDA-MB-468); experiment: IC50 in breast cancer cells; format: cell-based; conditions: Homo sapiens, Table 6
Prostate (DU145) = experiment: IC50 in prostate cancer cells; format: cell-based; conditions: Homo sapiens, DU-145; Table 6
[3] = tested on: leukemia cancer cells (AML-2); experiment: IC50 in leukemia cancer cells; format: cell-based; conditions: Table 6
BTSC68EF = experiment: alamarBlue cell viability, BTSC 68EF; format: cell-based, human; conditions: Homo sapiens; Table 4 library screen, alamarBlue; read-out: 68EF IC50
Protocol: as §1, §2

## CN(CC(=O)N(Cc1ccc(C2CCCCC2)cc1)c1ccc(NC(=O)Cc2nnn[nH]2)cc1)S(=O)(=O)c1c(F)c(F)c(F)c(F)c1F [Compound 41, N-(4-(2-(1H-tetrazol-5-yl)acetamido)phenyl)-N-(4-cyclohexylbenzyl)-2-(2,3,4,5,6-pentafluoro-N-methylphenylsulfonamido)acetamide]
BTSC73M
  IC50: 3.5 µM
[1]
  IC50: 16.4 µM

## CC(=O)Oc1cc(N(Cc2ccc(C3CCCCC3)cc2)C(=O)CN(C)S(=O)(=O)c2ccc(C)cc2)ccc1C(=O)O [SH-05-19, 2-acetoxy-4-(N-(4-cyclohexylbenzyl)-2-(N,4-dimethylphenylsulfonamido)acetamido)benzoic acid]
BTSC30M; read-out: IC50 BTSC 30M, Table 6, in parallel with other cancer lines
  IC50: 0.505 µM
AKT1; read-out: % Enzyme activity relative to DMSO (control), AKT1
  remaining activity at 5 µM: 90.6%
AKT1; remaining activity
  % Enzyme activity relative to DMSO (control), AKT1: 87.91%
ERK1; read-out: % Enzyme activity relative to DMSO (control), ERK1
  remaining activity at 5 µM: 119%
ERK1; remaining activity
  % Enzyme activity relative to DMSO (control), ERK1: 126.49%
c-Src; read-out: % Enzyme activity relative to DMSO (control), c-Src
  remaining activity at 5 µM: 41.6%
c-Src; remaining activity
  % Enzyme activity relative to DMSO (control), c-Src: 39.16%
JAK1; read-out: % Enzyme activity relative to DMSO (control), JAK1
  remaining activity at 5 µM: 98.3%
JAK1; remaining activity
  % Enzyme activity relative to DMSO (control), JAK1: 97.79%
JAK2; read-out: % Enzyme activity relative to DMSO (control), JAK2
  remaining activity at 5 µM: 46.1%
JAK2; remaining activity
  % Enzyme activity relative to DMSO (control), JAK2: 47.70%
[2]
  IC50: < 1 µM
Prostate (DU145)
  IC50: 9.8 µM
[3]
  IC50: < 1 µM

## CN(CC(=O)N(Cc1ccc(C2CCCCC2)cc1)c1ccc(O)c(C(=O)O)c1)S(=O)(=O)c1c(F)c(F)c(F)c(F)c1F [Compound 38, 5-(N-(4-cyclohexylbenzyl)-2-(2,3,4,5,6-pentafluoro-N-methylphenylsulfonamido)acetamido)-2-hydroxybenzoic acid]
BTSC30M; read-out: 30M IC50 (μM), Table 4 library screen, alamarBlue
  IC50: 2.07 µM
BTSC68EF
  IC50: 3.05 µM
BTSC73M
  IC50: 2.55 µM
[1]
  IC50: 4.8 µM

## Cc1ccc(S(=O)(=O)N(C)CC(=O)N(Cc2ccc(C3CCCCC3)cc2)c2ccc(C(=O)O)cc2)cc1 [Compound 42, 4-(N-(4-cyclohexylbenzyl)-2-(N,4-dimethylphenylsulfonamido)acetamido)benzoic acid]
BTSC30M; Table 4 library screen, alamarBlue
  30M IC50 (μM): no effect
BTSC73M
  73M IC50 (μM): no effect
[1]
  IC50: 16.7 µM
